From patent publication US20190315806A1, “POLYMYXIN DERIVATIVE, PREPARATION METHOD AND APPLICATION THEREOF” (priority 2016, published 2019)
In brackets after ≈: the same amount, converted by molar mass. Where a SMILES comes first, the peptide text is derived from it. Bridges are numbered along the chain shown (N, C = ends). [ ]: non-standard residue; d: D form. The star is where a group is joined. dPhe(4-NO2) = N[C@H](Cc1ccc([N+](=O)[O-])cc1)C(=O)O; dPhe(4-Me) = Cc1ccc(C[C@@H](N)C(=O)O)cc1; Heptanoyl(6-Me) = CC(C)CCCCC(=O)*; X7 = Cc1ccc(Oc2ccc(C(=O)*)cc2)cc1; X2 = CC[C@H](C)CCCCC(=O)*; Heptanoyl = CCCCCCC(=O)*; Octanoyl = CCCCCCCC(=O)*; X5 = CCCCCCCC(=O)CC(=O)*; Dab = NCC[C@H](N)C(=O)O; X8 = CN(C)CCCCC(=O)*

What was measured:
Format in all cases: cell-based
[1] = system: Acinetobacter baumannii ATCC 19606; conditions: ATCC 19606
Description: (§1) The minimum inhibitory concentration (MIC) was determined by means of dish double dilution method using a Multipoint inoculator according to the CLSI recommended method. The compounds of the present invention (for example, the compounds prepared in the Embodiments) and the reference substances were diluted twice each time with the broth into various desired concentrations, and appropriate amounts were added to the dishes. Agar medium is melted, and then quantitatively injected into the dish containing the drug solution, and mixed. The final concentrations of the compounds of the invention (e.g., the compounds prepared in the Embodiments) and the controls were 0.03, 0.06, 0.125, 0.25 . . . 128 μg/mL, respectively. The test bacteria were cultured overnight with nutrient broth, brain heart infusion or HTM broth. During the tests, the bacterial solutions were diluted appropriately, and the test bacteria (inoculation amount 10^4 CFU/dot) were inoculated on the surface of the drug-containing agar by a multi-point inoculator. After drying, the bacterial was incubated for 18 to 24 hours at 35° C., the results were observed, the minimum concentrations of the compounds of the present invention (for example, the compounds prepared in the Embodiments) and the controls contained in the dishes with no growth of colonies were MICs.
(§2) The strains used in the antibacterial activity experiments were from the American Type Culture Collection (ATCC) and clinical isolates.
(§3) The strains used for the experiments on antibacterial activity included Escherichia coli ATCC 25922, Klebsiella pneumoniae ATCC BAA-2146 (NDM-1), Pseudomonas aeruginosa ATCC 27853, Acinetobacter baumannii ATCC 19606 and Staphylococcus epidermidis ATCC 12228.
(§4) Tested samples: polymyxin derivatives prepared according to the technical scheme of the present invention;
(§5) Controls: polymyxin B sulfate and colistin (polymyxin E sulfate).

[2] = system: Escherichia coli ATCC 25922; conditions: ATCC 25922
Description: as §1, §2, §3, §4, §5

[3] = system: Pseudomonas aeruginosa ATCC 27853; conditions: ATCC 27853
Description: as §1, §2, §3, §4, §5

[4] = system: Staphylococcus epidermidis ATCC 12228; conditions: ATCC 12228
Description: as §1, §2, §3, §4, §5

[5] = system: Klebsiella pneumoniae ATCC BAA-2146 (NDM-1); test: Antibacterial activity, MIC by dish double dilution method
Description: as §1, §2, §3, §4, §5

| SMILES | MIC A. baumannii ATCC 19606 [1] | MIC E. coli ATCC 25922 [2] | MIC P. aeruginosa ATCC 27853 [3] | MIC S. epidermidis ATCC 12228 [4] | MIC K. pneumoniae ATCC BAA-2146 (NDM-1) ([5]; ATCC BAA-2146) | MIC K. pneumoniae ATCC BAA-2146 (NDM-1) ([5]; agar dilution, 10^4 CFU/dot, 18 to 24 hours at 35° C.) |
| --- | --- | --- | --- | --- | --- | --- |
| CCCCCCCC(=O)CC(=O)N[C@@H](CCN)C(=O)N[C@H](C(=O)N[C@@H](CCN)C(=O)N[C@H]1CCNC(=O)[C@H]([C@@H](C)O)NC(=O)[C@H](CCN)NC(=O)[C@H](CCN)NC(=O)[C@H](CC(C)C)NC(=O)[C@@H](Cc2ccccc2)NC(=O)[C@H](CCN)NC1=O)[C@@H](C)O [Compound 7, 3-oxodecanoyl-Dab-Thr-Dab-ring(4-10)[Dab-Dab-D-Phe-Lue-Dab-Dab-Thr]] (X5-[Dab]T[Dab][Dab][Dab][dF]L[Dab][Dab]T; lactam 4-C) | 2 µg/mL (≈ 1.62 µM) | 2 µg/mL (≈ 1.62 µM) | 4 µg/mL (≈ 3.25 µM) | 32 µg/mL (≈ 26 µM) | 2 µg/mL (≈ 1.62 µM) |  |
| CC(C)C[C@@H]1NC(=O)[C@@H](Cc2ccccc2)NC(=O)[C@H](CCN)NC(=O)[C@@H](NC(=O)[C@H](CCN)NC(=O)[C@@H](NC(=O)[C@H](CCN)NC(=O)CCCCN(C)C)[C@@H](C)O)CCNC(=O)[C@H]([C@@H](C)O)NC(=O)[C@H](CCN)NC(=O)[C@H](CCN)NC1=O [Compound 2, N,N-dimethylaminovaleryl-Dab-Thr-Dab-ring(4-10)[Dab-Dab-D-Phe-Lue-Dab-Dab-Thr]] (X8-[Dab]T[Dab][Dab][Dab][dF]L[Dab][Dab]T; lactam 4-C) | 8 µg/mL (≈ 6.72 µM) | 16 µg/mL (≈ 13.4 µM) | 1 µg/mL (≈ 0.84 µM) | >128 µg/mL | 128 µg/mL (≈ 108 µM) |  |
| CC[C@H](C)CCCCC(=O)N[C@@H](CCN)C(=O)N[C@H](C(=O)N[C@@H](CCN)C(=O)N[C@H]1CCNC(=O)[C@H]([C@@H](C)O)NC(=O)[C@H](CCN)NC(=O)[C@H](CCN)NC(=O)[C@H](CC(C)C)NC(=O)[C@@H](Cc2ccc([N+](=O)[O-])cc2)NC(=O)[C@H](CCN)NC1=O)[C@@H](C)O [Compound 14, (S)-6-methyloctanoyl-Dab-Thr-Dab-ring(4-10)[Dab-Dab-D-Phe(4-NO2)-Lue-Dab-Dab-Thr]] (X2-[Dab]T[Dab][Dab][Dab][dPhe(4-NO2)]L[Dab][Dab]T; lactam 4-C) | 1 µg/mL (≈ 0.801 µM) | 1 µg/mL (≈ 0.801 µM) | 2 µg/mL (≈ 1.6 µM) | 8 µg/mL (≈ 6.41 µM) | 2 µg/mL (≈ 1.6 µM) |  |
| CC[C@H](C)CCCCC(=O)N[C@@H](CCN)C(=O)N[C@H](C(=O)N[C@@H](CCN)C(=O)N[C@H]1CCNC(=O)[C@H]([C@@H](C)O)NC(=O)[C@H](CCN)NC(=O)[C@H](CCN)NC(=O)[C@H](CC(C)C)NC(=O)[C@@H](Cc2ccc(C)cc2)NC(=O)[C@H](CCN)NC1=O)[C@@H](C)O [Compound 26, (S)-6-methyloctanoyl-Dab-Thr-Dab-ring(4-10)[Dab-Dab-D-Phe(4-CH3)-Lue-Dab-Dab-Thr]] (X2-[Dab]T[Dab][Dab][Dab][dPhe(4-Me)]L[Dab][Dab]T; lactam 4-C) | 0.5 µg/mL (≈ 0.411 µM) | 1 µg/mL (≈ 0.821 µM) | 2 µg/mL (≈ 1.64 µM) | 8 µg/mL (≈ 6.57 µM) | 2 µg/mL (≈ 1.64 µM) |  |
| CCCCCCCC(=O)N[C@@H](CCN)C(=O)N[C@H](C(=O)N[C@@H](CCN)C(=O)N[C@H]1CCNC(=O)[C@H](CC(C)C)NC(=O)[C@H](CCN)NC(=O)[C@H](CCN)NC(=O)[C@H](CC(C)C)NC(=O)[C@@H](Cc2ccccc2)NC(=O)[C@H](CCN)NC1=O)[C@@H](C)O [Compound 129, octanoyl-Dab-Thr-Dab-ring(4-10)[Dab-Dab-D-Phe-Lue-Dab-Dab-Lue]] (Octanoyl-[Dab]T[Dab][Dab][Dab][dF]L[Dab][Dab]L; lactam 4-C) | 4 µg/mL (≈ 3.33 µM) | 4 µg/mL (≈ 3.33 µM) | 4 µg/mL (≈ 3.33 µM) | 8 µg/mL (≈ 6.66 µM) | 4 µg/mL (≈ 3.33 µM) |  |
| CC(C)CCCCC(=O)N[C@@H](CCN)C(=O)N[C@H](C(=O)N[C@@H](CCN)C(=O)N[C@H]1CCNC(=O)[C@H]([C@@H](C)O)NC(=O)[C@H](CCN)NC(=O)[C@H](CCN)NC(=O)[C@H](CC(C)C)NC(=O)[C@@H](CC(C)C)NC(=O)[C@H](CCN)NC1=O)[C@@H](C)O [Compound 74, 6-methylheptanoyl-Dab-Thr-Dab-ring(4-10)[Dab-Dab-D-Leu-Leu-Dab-Dab-Thr]] ({Heptanoyl(6-Me)}-[Dab]T[Dab][Dab][Dab][dL]L[Dab][Dab]T; lactam 4-C) | 0.5 µg/mL (≈ 0.433 µM) | 0.5 µg/mL (≈ 0.433 µM) | 2 µg/mL (≈ 1.73 µM) | 64 µg/mL (≈ 55.4 µM) |  | 1 µg/mL (≈ 0.865 µM) |
| Cc1ccc(Oc2ccc(C(=O)N[C@@H](CCN)C(=O)N[C@H](C(=O)N[C@@H](CCN)C(=O)N[C@H]3CCNC(=O)[C@H]([C@@H](C)O)NC(=O)[C@H](CCN)NC(=O)[C@H](CCN)NC(=O)[C@H](CC(C)C)NC(=O)[C@@H](Cc4ccccc4)NC(=O)[C@H](CCN)NC3=O)[C@@H](C)O)cc2)cc1 [Compound 9, 4-(p-methylphenoxy)benzoyl-Dab-Thr-Dab-ring(4-10)[Dab-Dab-D-Phe-Lue-Dab-Dab-Thr]] (X7-[Dab]T[Dab][Dab][Dab][dF]L[Dab][Dab]T; lactam 4-C) | 4 µg/mL (≈ 3.14 µM) | 4 µg/mL (≈ 3.14 µM) | 4 µg/mL (≈ 3.14 µM) | 8 µg/mL (≈ 6.28 µM) | 4 µg/mL (≈ 3.14 µM) |  |
| CCCCCCC(=O)N[C@@H](CCN)C(=O)N[C@H](C(=O)N[C@@H](CCN)C(=O)N[C@H]1CCNC(=O)[C@H]([C@@H](C)O)NC(=O)[C@H](CCN)NC(=O)[C@H](CCN)NC(=O)[C@H]([C@@H](C)CC)NC(=O)[C@@H](CC(C)C)NC(=O)[C@H](CCN)NC1=O)[C@@H](C)O [Compound 83, heptanoyl-Dab-Thr-Dab-ring(4-10)[Dab-Dab-D-Leu-Ile-Dab-Dab-Thr]] (Heptanoyl-[Dab]T[Dab][Dab][Dab][dL]I[Dab][Dab]T; lactam 4-C) | 1 µg/mL (≈ 0.876 µM) | 0.5 µg/mL (≈ 0.438 µM) | 1 µg/mL (≈ 0.876 µM) | >128 µg/mL | 1 µg/mL (≈ 0.876 µM) |  |
| CCCCCCCC(=O)N[C@@H](CCN)C(=O)N[C@H](C(=O)N[C@@H](CO)C(=O)N[C@H]1CCNC(=O)[C@H]([C@@H](C)O)NC(=O)[C@H](CCN)NC(=O)[C@H](CCN)NC(=O)[C@H](CC(C)C)NC(=O)[C@@H](CC(C)C)NC(=O)[C@H](CCN)NC1=O)[C@@H](C)O [Compound 98, octanoyl-Dab-Thr-Ser-ring(4-10)[Dab-Dab-D-Leu-Leu-Dab-Dab-Thr]] (Octanoyl-[Dab]TS[Dab][Dab][dL]L[Dab][Dab]T; lactam 4-C) | 0.5 µg/mL (≈ 0.438 µM) | 0.5 µg/mL (≈ 0.438 µM) | 1 µg/mL (≈ 0.875 µM) | >128 µg/mL | 1 µg/mL (≈ 0.875 µM) |  |
| CCCCCCCC(=O)N[C@@H](CCN)C(=O)N[C@H](C(=O)N[C@@H](CO)C(=O)N[C@H]1CCNC(=O)[C@H]([C@@H](C)O)NC(=O)[C@H](CCN)NC(=O)[C@H](CCN)NC(=O)[C@H]([C@@H](C)O)NC(=O)[C@@H](CC(C)C)NC(=O)[C@H](CCN)NC1=O)[C@@H](C)O [Compound 111, octanoyl-Dab-Thr-Ser-ring(4-10)[Dab-Dab-D-Leu-Thr-Dab-Dab-Thr]] (Octanoyl-[Dab]TS[Dab][Dab][dL]T[Dab][Dab]T; lactam 4-C) | 1 µg/mL (≈ 0.885 µM) | 0.5 µg/mL (≈ 0.442 µM) | 1 µg/mL (≈ 0.885 µM) | 64 µg/mL (≈ 56.6 µM) | 0.5 µg/mL (≈ 0.442 µM) |  |
| CC[C@H](C)CCCCC(=O)N[C@@H](CCN)C(=O)N[C@H](C(=O)N[C@@H](CCN)C(=O)N[C@H]1CCNC(=O)[C@H]([C@@H](C)O)NC(=O)[C@H](CCN)NC(=O)[C@H](CCN)NC(=O)[C@H]([C@@H](C)O)NC(=O)[C@@H](CC(C)C)NC(=O)[C@H](CCN)NC1=O)[C@@H](C)O [Compound 102, (S)-6-methyloctanoyl-Dab-Thr-Dab-ring(4-10)[Dab-Dab-D-Leu-Thr-Dab-Dab-Thr]] (X2-[Dab]T[Dab][Dab][Dab][dL]T[Dab][Dab]T; lactam 4-C) | 0.5 µg/mL (≈ 0.432 µM) | 1 µg/mL (≈ 0.864 µM) | 1 µg/mL (≈ 0.864 µM) | >128 µg/mL | 0.25 µg/mL (≈ 0.216 µM) |  |
| CCCCCCCC(=O)N[C@@H](CCN)C(=O)N[C@H](C(=O)N[C@H](CO)C(=O)N[C@H]1CCNC(=O)[C@H]([C@@H](C)O)NC(=O)[C@H](CCN)NC(=O)[C@H](CCN)NC(=O)[C@H]([C@@H](C)O)NC(=O)[C@@H](Cc2ccccc2)NC(=O)[C@H](CCN)NC1=O)[C@@H](C)O [Compound 117, octanoyl-Dab-Thr-D-Ser-ring(4-10)[Dab-Dab-D-Phe-Thr-Dab-Dab-Thr]] (Octanoyl-[Dab]T[dS][Dab][Dab][dF]T[Dab][Dab]T; lactam 4-C) | 0.25 µg/mL (≈ 0.215 µM) | 0.5 µg/mL (≈ 0.429 µM) | 2 µg/mL (≈ 1.72 µM) | >128 µg/mL | 0.5 µg/mL (≈ 0.429 µM) |  |
